How the values were obtained:
guinea-pigs = test: Gastric emptying measured by x-ray localization of barium sulfate spheroids in guinea pigs after i.p. administration; format: in vivo, guinea pig; conditions: for Gastric emptying (percentage of spheroids leaving the stomach) after 1 hour / Gastric emptying (percentage of spheroids leaving the stomach) after 2 hours: 1 mg/kg i.p.; for Gastric emptying (percentage of spheroids leaving the stomach) after 1 hour / Gastric emptying (percentage of spheroids leaving the stomach) after 2 hours / Gastric emptying after 2 hours: guinea-pigs; for Gastric emptying (percentage of spheroids leaving the stomach) after 2 hours: control group 28%; for Gastric emptying at 1 mg/kg compared with metoclopramide 5 mg/kg: 1 mg/kg of compound vs 5 mg/kg of metoclopramide; for Gastric emptying after 2 hours: 5 mg/kg, control group 24.8%
Method: Feeding of the animals were interrupted 14 hours before measurement of gastric emptying. The experimentation was conducted under weak illumination, with the least possible noise and disturbances, solely by experimentors having daily contact with the guinea pigs and having sufficient initial training in handling the animals. The animals were then subjected to minimal stress.
The measurement of gastric emptying was carried out by x-ray localization (50 KV, 30 mA, 0.5-0.8 s.), on Kodak plates (NS-2T, 13×18 cm) of barium sulfate spheroids (approximately 30, 1 mm in diameter) coated with polystyrene, which the guinea pigs were made to swallow by placing them in the back of the throat, in a solution of 0.2 ml of 1% carboxymethylcellulose with 0.05 ml of glycerine, so as to initiate rapid and voluntary deglutition.
The passage of the spheroids was followed for 3 to 4 hours, the animals being placed in their customary cages for that time and taken out only 5 minutes before x-ray exposure (at intervals of 30-60 minutes). During the x-ray procedure, the animals were placed in individual holding cages, keeping them comfortably in a stable position, the cage being sufficiently sized (33×15 cm and 13 cm high) so as to comfortably maintain a 450 to 550 gram guinea pig between the padded walls, the animal being trained to enter the cage and remain there tranquilly and without stress.
Gastric emptying was measured by the number of spheroids leaving the stomach. For each dose of product studied, 6 guinea pigs were used, and the responses were compared to those of guinea pigs receiving the appropriate vehicle.
Compound (I) was studied at doses of 1 mg/kg and 0.01 mg/kg, Compounds (II) to (V) were studied at a dose of 1 mg/kg, the compounds (VI) to (VIII) at a dose of 5 mg/kg. Metoclopramide was evaluated at doses of 1 mg/kg and 5 mg/kg.
The results are recorded in graphic form in FIG. 1. The compounds according to the invention and metoclopromide were dissolved in distilled water and the doses are expressed as base.
This emptying is expressed, in FIG. 1 and Table 1, as a percentage of spheroids leaving the stomach.

[1] = Acute toxicity, intravenous, male mice; conditions: mouse, in vivo, read-out: LD50 (median lethal dose)
From the text: The acute toxicity of the compounds of the invention administered intravenously was studied in male mice.

Compound	Gastric emptying (percentage of spheroids leaving the stomach) after 1 hour (guinea-pigs) [%]	Gastric emptying (percentage of spheroids leaving the stomach) after 2 hours (guinea-pigs) [%]	Gastric emptying at 1 mg/kg compared with metoclopramide 5 mg/kg (guinea-pigs)	LD50 [1] [mg/kg]	Gastric emptying after 2 hours (guinea-pigs) [%]	Effect on gastric emptying (in words) (guinea-pigs; intraperitoneal, immobilized guinea-pigs, FIG. 1)
CCN(CC)CCNC(=O)c1cc(Cl)c(NC2=NCCN2)cc1OC [Compound I, N-[2-(diethylamino)ethyl]-2-methoxy-4-[(4,5-dihydro-1H-imidazol-2-yl)-amino]-5-chlorobenzamide]	24	63	a result equivalent to the use of 5 mg/kg of metoclopramide	12.8 to 14.4	–	–
CCN(CC)CCNC(=O)c1cc(Cl)c(NC2=NCCS2)cc1OC [Compound II, N-[2-(diethylamino)ethyl]-2-methoxy-4-[(4,5-dihydro-2-thiazolyl)amino]-5-chlorobenzamide]	12.5	60	–	40.6 to 48.7	–	–
CCN(CC)CCNC(=O)c1cc(Cl)c(NC2=NCCO2)cc1OC [Compound III, N-[2-(diethylamino)ethyl]-2-methoxy-4-[(4,5-dihydro-2-oxazolyl)amino]-5-chlorobenzamide]	20	57	–	91 to 116	–	–
CNC(=O)c1cc(Cl)c(NC2=NCCN2)cc1OC [Compound IV, N-methyl-2-methoxy-4-[(4,5-dihydro-1H-imidazol-2-yl)amino] -5-chlorobenzamide]	38	62	a result equivalent to the use of 5 mg/kg of metoclopramide	95.8 to 138	–	–
CCN(CC)CCNC(=O)c1cc(Cl)c(NC2=NCCN2)cc1O [Compound V, N-[2-(diethylamino)ethyl]-2-hydroxy-4-[(4,5-dihydro-1H-imidazol-2-yl)-amino]-5-chlorobenzamide]	32	55	–	65.7 to 76.7	–	–
COc1cc(NC2=NCCN2)c(Cl)cc1C(=O)NC(C)C [Compound VII, N-isopropyl-2-methoxy-4-[(4,5-dihydro-1H-imidazol-2-yl)amino]-5-chlorobenzamide]	–	–	–	–	46.2	–
C=CCNC(=O)c1cc(Cl)c(NC2=NCCN2)cc1OC [Compound VIII, N-allyl-2-methoxy-4-[(4,5-dihydro-1H-imidazol-2-yl)amino]-5-chlorobenzamide]	–	–	–	–	47.4	–
CCN(CC)CCNC(=O)c1cc(Cl)c(N)cc1OC [metoclopramide, N-(2-diethylaminoethyl)-2-methoxy-4-amino-5-chlorobenzamide, reference compound]	16	39	–	25.4 to 37.9	–	an increase in gastric emptying

Reference: US5116857A, “Method of increasing gastrointestinal motility with substituted benzamides” (Laboratoires Delagrange Div. Societe d'Applications …, priority 1988, dated 1992)
